How the values were obtained:
[1] = test system: HepG2; experiment: Cell viability assay (ATP-Lite), HepG2; assay type: cell-based; conditions: Homo sapiens; HepG2, 96 hours
Procedure: (§1) All cell lines were cultured in media as recommended by American Type Culture Collection (“ATCC”; supplemented with 10% fetal bovine serum (“FBS”) and 1% penicillin/streptomycin (100 IU/ml pencillin and 100 μg/ml streptomycin) at 37° C. and 5% CO2. The cell lines used in these studies included those indicated in Table II below.
(§2) For cell proliferation assays, 45 μl containing 1000 cells per well were seeded into solid white 384-well plates in appropriate cell growth media containing 10% FBS and incubated overnight at 37° C. and 5% CO2. The following day, test compounds were diluted in serum free growth media to 10× desired concentrations and 5 μl was added to each well. Combined compound and cells were incubated for 96 hours. Following incubation, 40 μl of ATP-Lite solution (PerkinElmer, Inc., Waltham, Massachussetts) was added to each well, incubated for an additional 10 minutes at room temperature and luminescence was measured on an EnVision microplate reader. Percent cell viability for test compounds was calculated by comparing treated wells to appropriate controls (e.g. vehicle treated) included on each plate.
(§3) IC50 values are determined using GraphPad Prism 5 software. The data were entered as an X-Y plot into the software as percent inhibition for each concentration of the drug. The concentration values of the drug were log transformed and the nonlinear regression was carried out using the “sigmoidal dose-response (variable slope)” option within the GraphPad software to model the data and calculate IC50 values.
(§4) The ability of compounds to inhibit the viability of cultured cells was determined using the cell viability assay described above. Activity data for representative compounds is shown below in Table IV for the compounds was tested in the indicated cell lines (PL-45, PANC-1, PSN-1, HepG2, and […]). IC50 values were determined as described above. If IC50 value is indicated as “n.d.”, it means that the compound was […] in the indicated cell line. The compound number corresponds to the numbering used in Table I.

[2] = molecular target: T1, recombinant human Axl kinase (catalytic domain, amino acids 473-894) (Homo sapiens, UniProt P30530); experiment: Axl kinase activity assay (TR-FRET, fluorescein poly-GT substrate); assay type: biochemical; conditions: 20 μM ATP, 93 ng/ml Axl kinase, 60 min; read-out: IC50 (Axl kinase activity)
T1 construct: catalytic domain, amino acids 473-894; purchased Invitrogen Corporation, Carlsbad, Calif
T1 sequence (P30530 473-894): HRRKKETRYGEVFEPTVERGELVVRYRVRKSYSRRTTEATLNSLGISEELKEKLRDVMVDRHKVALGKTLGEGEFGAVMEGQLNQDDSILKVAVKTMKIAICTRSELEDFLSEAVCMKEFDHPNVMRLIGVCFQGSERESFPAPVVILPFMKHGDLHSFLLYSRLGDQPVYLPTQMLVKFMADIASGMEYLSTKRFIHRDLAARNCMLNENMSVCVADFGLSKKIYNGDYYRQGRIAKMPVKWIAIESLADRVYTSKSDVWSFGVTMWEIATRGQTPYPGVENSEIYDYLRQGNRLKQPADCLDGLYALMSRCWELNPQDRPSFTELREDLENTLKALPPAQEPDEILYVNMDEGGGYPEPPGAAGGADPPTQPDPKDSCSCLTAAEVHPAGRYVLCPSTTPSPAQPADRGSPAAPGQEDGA
Procedure: Test compounds were diluted to desired concentrations in kinase reaction buffer (50 mM HEPES pH 7.5, 10 mM MgCl2, 1 mM EGTA, 2 mM DTT, and 0.01% v/v Tween-20) and were briefly incubated with Axl kinase (Invitrogen Corporation, Carlsbad, Calif.). The Axl kinase used was recombinant human Axl kinase (catalytic domain, amino acids 473-894) with a histidine tag. The reaction was initiated by the addition of ATP and fluorescein-labeled poly-GT substrate (poly Glu:Tyr, 4:1 polymer; Invitrogen). Concentration of the various components in the assay (10 μl reaction volume) were: 1% DMSO, 93 ng/ml Axl kinase, 20 μM ATP, and 200 nM fluorescein poly-GT substrate. Following addition of ATP and fluorescein poly-GT substrate, incubation was for 60 min at room temperature, the enzyme reaction is stopped by addition of 10 μl terbium-labeled anti-phosphotyrosine PY20 antibody in EDTA-containing buffer. Final concentration of EDTA and antibody after addition to the reaction is 10 mM and 2 nM, respectively. The terbium conjugated antibody generates a time-resolved FRET signal with the fluorescein molecule (bound to the poly-GT substrate) when the substrate is phosphorylated. After one hour incubation at room temperature, fluorescence was measured with excitation of 320 nm and dual emission of 495 and 520 urn on an EnVision microplate reader (PerkinElmer). Signal is expressed in terms of a TR-FRET ratio (fluorescence intensity at 520 nm to 495 nm).
as §3

[3] = test system: A549; experiment: Cell viability assay (ATP-Lite), A549; assay type: cell-based; conditions: Homo sapiens; A549, 96 hours
Procedure: as §1, §2, §3, §4

[4] = test system: PANC-1; experiment: Cell viability assay (ATP-Lite), PANC-1; assay type: cell-based; conditions: Homo sapiens; PANC-1, 96 hours
Procedure: as §1, §2, §3, §4

[5] = test system: PL45; experiment: Cell viability assay (ATP-Lite), PL45; assay type: cell-based; conditions: Homo sapiens; PL45, 96 hours
Procedure: as §1, §2, §3, §4

[6] = test system: PSN-1; experiment: Cell viability assay (ATP-Lite), PSN-1; assay type: cell-based; conditions: Homo sapiens, PSN1; PSN-1, 96 hours
Procedure: as §1, §2, §3
The ability of compounds to inhibit the viability of cultured cells was determined using the cell viability assay described above. […] IC50 values were determined as described above. If IC50 value is indicated as “n.d.”, it means that the compound was […] in the indicated cell line. The compound number corresponds to the numbering used in Table I.

IC50 [1] [nM]	IC50 [2] [nM]	IC50 [3] [nM]	IC50 [4] [nM]	SMILES	IC50 [5] [nM]	IC50 [6] [nM]
121	20	2	34	CN1CCN(Cc2ccc(Nc3ncc(Cl)c(Nc4ccccc4S(=O)(=O)N4CCCC4)n3)cc2)CC1 [Compound 1]	47	2
303	32	3	303	CN1CCN(Cc2ccc(Nc3ncc(Cl)c(Nc4ccccc4C(=O)NC4CC4)n3)cc2)CC1 [Compound 2]	3	64
43	37	4	93	CN1CCN(Cc2ccc(Nc3ncc(Cl)c(Nc4ccc(F)cc4S(=O)(=O)N4CCCC4)n3)cc2)CC1 [Compound 3]	17	9
6		8	38	CN1CCN(Cc2ccc(Nc3ncc(Cl)c(Nc4ccccc4S(=O)(=O)N(C)C)n3)cc2)CC1 [Compound 4]	48	
194	61	7	96	CN1CCN(Cc2ccc(Nc3ncc(Cl)c(Nc4ccccc4C(=O)N4CCCC4)n3)cc2)CC1 [Compound 6]	14	21
57	88	19	142	CN1CCN(Cc2ccc(Nc3ncc(Cl)c(Nc4ccccc4C(=O)N(C)C)n3)cc2)CC1 [Compound 7]	95	70
527	119	77	481	CN1CCN(Cc2ccc(Nc3ncc(Cl)c(-c4ccc(F)cc4S(=O)(=O)N4CCCC4)n3)cc2)CC1 [Compound 9]	426	192
	289		5780	Cc1cnc(Nc2ccc(CN3CCN(C)CC3)cc2)nc1-c1ccc(C(C)(C)C#N)cc1 [Compound 11]	8210	2550
	445		7600	Cc1cnc(Nc2ccc(CN3CCN(C)CC3)cc2)nc1-c1cccc(Cl)c1 [Compound 13]	4820	2660
	730		7750	Cc1cnc(Nc2ccc(CN3CCN(C)CC3)cc2)nc1-c1ccc(F)c(Cl)c1 [Compound 14]	14400	4270

SMILES	IC50 [1] [nM]	IC50 [2] [nM]	IC50 [3] [nM]	IC50 [4] [nM]	IC50 [5] [nM]	IC50 [6] [nM]
CN1CCC(N(C)c2ccc(Nc3ncc(Cl)c(Nc4ccccc4S(=O)(=O)N(C)C)n3)cc2)CC1 [Compound 5]		56		80	370	
Cc1cnc(Nc2ccc(N(C)C3CCN(C)CC3)cc2)nc1-c1ccc(F)c(Cl)c1 [Compound 12]		416		10900	13700	6710

— patent US8901120B2, “Substituted N-phenylpyrimidin-2-amine analogs as inhibitors of the Axl kinase” (University of Utah Research Foundation, priority 2011, dated 2014)
